Data as given in patent publication US4584369A, “Anti-leukemic beta-glycosyl C-nucleosides” (Sloan-Kettering Institute for Cancer Research, priority 1984, dated 1986).
≈ marks a conversion by molar mass, not a printed value.

Columns and labels:
[1] = tested on: L-1210; assay: In vitro activity in mouse leukemic cell line L-1210; assay type: cell-based; conditions: L1210, L-1210, in vitro, read-out: ID50 (the source's name)
Description: (§1) CNUCLEOSIDES IN MOUSE AND HUMAN LEUKYMIC CELL LINES
(§2) It is noted that the first compound in Table 1 is the compound reported in Lim et al (supra).

[2] = tested on: ALL-CCRF-CEM; assay: In vitro activity in human leukemic cell line ALL-CCRF-CEM; assay type: cell-based; conditions: read-out: ID50 (the source's name)
Description: as §1, §2

[3] = tested on: HL-60; assay: In vitro activity in human leukemic cell line HL-60; assay type: cell-based; conditions: HL-60, in vitro, read-out: ID50 (the source's name)
Description: as §1, §2

[4] = tested on: RAJI; assay: In vitro activity in human leukemic cell line RAJI; assay type: cell-based; conditions: read-out: ID50 (the source's name)
Description: as §1, §2

[5] = tested on: P-815; assay: In vitro activity in mouse leukemic cell line P-815; assay type: cell-based; conditions: P815, P-815, in vitro, read-out: ID50 (the source's name)
Description: as §1, §2

[6] = tested on: leukemic cells; assay: Anti-leukemic / antitumor activity using usual techniques of the art (summary statements); assay type: cell-based, mouse and human; conditions: in words
Description: as §2

[7] = tested on: P-815/ARA C; assay: In vivo activity of C-nucleosides in mice, P-815/ARA C line
Description: (§3) IN VIVO ACTIVITY OF CNUCLEOSIDES IN MICE
as §2

[8] = tested on: L-1210/MP; assay: In vivo activity of C-nucleosides in mice, L-1210/MP line; conditions: Q4D × 3,D1 @ 0.4 MG/KG
Description: as §3, §2

[9] = tested on: L-1210/0; assay: In vivo activity of C-nucleosides in mice, L-1210/0 line
Description: as §3, §2

[10] = tested on: P-815/0; assay: In vivo activity of C-nucleosides in mice, P-815/0 line
Description: as §3, §2

SMILES | IC50 [1] [µg/mL] | IC50 [2] [µg/mL] | IC50 [3] [µg/mL] | IC50 [4] [µg/mL] | IC50 [5] [µg/mL] | antitumor / anti-leukemic activity ([6]; listed as X--NH, R1 =OH) | antitumor / anti-leukemic activity ([6]; listed as first compound in Table 1) | % ILS ([7]; Q4D × 3,D1 @ 0.4 MG/KG) [%] | % ILS ([7]; Q4D × 3,D1 @ 0.7 MG/KG) [%] | % ILS [8] [%] | % ILS ([9]; Q4D × 3,D1 @ 0.25 MG/KG) [%] | % ILS ([9]; QD × 5,D1 @ 0.5 MG/KG) [%] | % ILS ([10]; Q4D × 4,D1 @ 40 MG/KG) [%] | % ILS ([10]; QD × 2/Q2D × 3 @ 60 MG/KG) [%]
O=c1[nH]cnc2c([C@@H]3O[C@H](CO)[C@@H](O)[C@H]3O)c[nH]c12 [X = NH, R1 -- OH, R2 = H, reference compound] | > 100 | > 100 | > 100 | > 100 | > 10 | essentially no antitumor activity | lack of activity |  |  |  |  |  |  | 
Nc1nc[nH]c2c([C@@H]3O[C@H](CO)[C@@H](O)[C@H]3O)cnc1-2 [X = NH, R1 = NH2, R2 = H, 7-(β-D-Ribofuranosyl)-4-amino-pyrrolo[3,2-d]pyrimidine] | 0.0008 (≈ 0.003 µM) | 0.0008 (≈ 0.003 µM) | 0.0003 (≈ 0.00113 µM) | 0.002 (≈ 0.00751 µM) | 0.001 (≈ 0.00376 µM) |  |  | 19.8 | 30.8 | 71.8 | 17.0 | 9.1 |  | 
OC[C@H]1O[C@@H](c2c[nH]c3c(=S)[nH]cnc23)[C@H](O)[C@@H]1O [X = NH, R1 = SH, R2 = H] |  |  |  |  | 5.6 (≈ 19.8 µM) |  |  |  |  |  |  |  |  | 
CSc1ncnc2c([C@@H]3O[C@H](CO)[C@@H](O)[C@H]3O)c[nH]c12 [X = NH, R1 = SMe, R2 = H] |  |  |  |  | 0.3 (≈ 1.01 µM) |  |  |  |  |  |  |  |  | 
Nc1ncnc2c([C@@H]3O[C@H](CO)[C@@H](O)[C@H]3O)csc12 [X = S, R1 = NH2, R2 = H, 7-(β-D-ribofuranosyl)-4-amino-thieno[3,2-d]pyrimidine] | 0.0006 (≈ 0.00212 µM) | 0.0005 (≈ 0.00176 µM) | 0.0005 (≈ 0.00176 µM) | 0.002 (≈ 0.00706 µM) | 0.0003 (≈ 0.00106 µM) |  |  |  |  |  |  |  |  | 
O=c1[nH]cnc2c([C@@H]3O[C@H](CO)[C@@H](O)[C@H]3O)csc12 [X = S, R1 = OH, R2 = H, 7-(β-D-Ribofuranosyl)-3H-4-oxo-thieno[3,2-d]pyrimidine] | 3.3 (≈ 11.6 µM) | 0.9 (≈ 3.17 µM) | 0.4 (≈ 1.41 µM) | 4.2 (≈ 14.8 µM) | 2.5 (≈ 8.79 µM) |  |  |  |  |  |  |  |  | 
OC[C@H]1O[C@@H](c2csc3c(=S)[nH]cnc23)[C@H](O)[C@@H]1O [X = S, R1 = SH, R2 = H, 7-(β-D-ribofuranosyl)-3H-4-thiono-thieno[3,2-d]pyrimidine] | 0.6 (≈ 2 µM) | 1.6 (≈ 5.33 µM) | 0.4 (≈ 1.33 µM) | 0.9 (≈ 3 µM) | 0.5 (≈ 1.66 µM) |  |  |  |  |  |  |  |  | 
CSc1ncnc2c([C@@H]3O[C@H](CO)[C@@H](O)[C@H]3O)csc12 [X = S, R1 = SMe, R2 = H, 7-(β-D-Ribofuranosyl)-4-methylthio-thieno[3,2-d]pyrimidine] | 0.07 (≈ 0.223 µM) | 0.006 (≈ 0.0191 µM) | 0.008 (≈ 0.0254 µM) | 0.03 (≈ 0.0954 µM) | 0.03 (≈ 0.0954 µM) |  |  |  |  |  |  |  | 56.3 | 71.4
